In patent publication US11993598B2, “Compounds for inhibiting EGFR kinase, preparation methods and uses thereof” (WIGEN BIOMEDICINE TECHNOLOGY (SHANGHAI) CO., LTD., priority 2019, dated 2024):
pIC50: −log10 of the molar value.

Columns and labels:
[1] = biological target: Ba/F3_EGFR D770_N771insSVD (Homo sapiens, UniProt P00533, DUP768-770, cells depend on it); assay: Cell proliferation assay (MTT); format: cell-based; details: three days, read-out: Ba/F3_EGFR D770_N771insSVD IC50
Method: (§1) A431 cells, H1975 and Ba/F3 cells expressing various mutant EGFR were harvested from exponential phase cultures and seeded in 96-well plates at a cell density of 3000 per well for A431 and H1975, and 10000 per well for Ba/F3 cells. After overnight attachment, compounds were 3-fold serially diluted and applied to cells at 30 μM, 10 μM, 3 μM, 1 μM, 0.3 μM, […], 0.03 μM and 0.01 μM with triplicates, and incubated for three days. 20 μL of 5 mg/mL MTT was added afterwards followed by the further addition of 50 μL 10% SDS together with 5% isobutyl alcohol in 0.01 mol/L HCl. The plates were incubated overnight. Absorbance (A) at a wavelength of 570 nm was quantified. Percentage of inhibition was used for the calculation of IC50 based on the bliss method.

[2] = system: H1975 (EGFR L858R/T790M, NSCLC); assay: Cell proliferation assay (MTT); format: cell-based; details: Homo sapiens, NCI-H1975, 72 h, three days
Method: as §1

[3] = biological target: Ba/F3_EGFR V769_D770insASV (Homo sapiens, UniProt P00533, DUP767-769, cells depend on it); assay: Cell proliferation assay (MTT); format: cell-based; details: three days, read-out: Ba/F3_EGFR V769_D770insASV IC50
Method: as §1

[4] = system: A431 (wild type EGFR, skin cancer); assay: Cell proliferation assay (MTT); format: cell-based; details: Homo sapiens, A-431, 72 h, three days
Method: as §1

[5] = biological target: HER4 (Homo sapiens, UniProt Q15303); assay: HER4 biochemical activity assay (HTRF)
Method: (§2) Assay 1: Wild-type EGFR, HER2 and HER4, and mutant EGFR biochemical activity assay
(§3) 10 nL of Serially diluted compounds were transferred to assay plates using the labcyte Echo 550, and 5 uL of 2× enzymes in assay buffer were subsequently dispensed. The assay plate was covered with an adhesive plate seal, and briefly spinned for 30 s at 1000 g. 5 uL of 2× TK-substrate-biotin and ATP mixed in assay buffer were added.
(§4) IC50 was calculated and analyzed using a 4 parametric logistic model.

[6] = system: tumor growth with EGFR exon 20 insertions and T790M mutations; assay: In vivo CDX and PDX mouse models, overall statement; set-up: species or system nude mice
Method: (§5) Assay 3. In vivo studies in cell line-derived (CDX) and patient derived xenografts (PDX) mouse models
(§6) Cells (H1975) or tissue pieces (LU0493 and LU0426) were implanted subcutaneously into the left armpit of nude mice. When the average tumor volume reached 100-150 mm^3, mice were randomized by tumor volume and treated with vehicle, compound 1 or poziotinib respectively. Tumor volume and body weight were measured twice per week. Mice were sacrificed on day 21 or day 28, and tumor volume and terminal body weight were recorded. The relative tumor volume, percent of treatment/control values and tumor growth inhibition were calculated and statistics was performed.
(§7) Terminal body weight changes were calculated as percentage of body changes from day 1 to day 21.

[7] = system: LU-01-0426; assay: Patient derived xenograft (PDX) mouse model; format: in vivo, nude mice
Method: as §5, §6, §7

[8] = system: LU-01-0493; assay: Patient derived xenograft (PDX) mouse model; format: in vivo, nude mice
Method: as §5, §6, §7

[9] = biological target: EGFR Del19 (Homo sapiens, UniProt P00533); assay: Mutant EGFR biochemical activity assay (HTRF)
Method: as §2, §3, §4

[10] = biological target: EGFR A763_Y764insFHEA (Homo sapiens, UniProt P00533, INS763FHEA); assay: Mutant EGFR biochemical activity assay (HTRF); details: read-out: IC50 (nM) EGFR A763_Y764 insFHEA
Method: as §2, §3, §4

[11] = biological target: EGFR L792H (Homo sapiens, UniProt P00533, L792H); assay: Mutant EGFR biochemical activity assay (HTRF)
Method: as §2, §3, §4

[12] = biological target: EGFR T790M (Homo sapiens, UniProt P00533, T790M); assay: Mutant EGFR biochemical activity assay (HTRF)
Method: as §2, §3, §4

[13] = biological target: EGFR D770_N771insNPG T790M (Homo sapiens, UniProt P00533, INS770NPG/T790M); assay: Mutant EGFR biochemical activity assay (HTRF); details: read-out: IC50 (nM) EGFR D770_N771 insNPG T790M
Method: as §2, §3, §4

[14] = biological target: EGFR D770-N771insNPG (Homo sapiens, UniProt P00533, INS770NPG); assay: Mutant EGFR biochemical activity assay (HTRF)
Method: as §2, §3, §4

[15] = biological target: EGFR D770GY (Homo sapiens, UniProt P00533, D770Y/INS769G); assay: Mutant EGFR biochemical activity assay (HTRF)
Method: as §2, §3, §4

[16] = biological target: EGFR T790M/L858R (Homo sapiens, UniProt P00533, L858R/T790M); assay: Mutant EGFR biochemical activity assay (HTRF)
Method: as §2, §3, §4

[17] = biological target: EGFR L792F (Homo sapiens, UniProt P00533, L792F); assay: Mutant EGFR biochemical activity assay (HTRF)
Method: as §2, §3, §4

[18] = system: LU-0387; assay: Xenograft mouse model LU-0387; format: in vivo, nude mice
[19] = biological target: HER2 (Homo sapiens, UniProt P04626); assay: HER2 biochemical activity assay (HTRF)
Method: as §2, §3, §4

[20] = biological target: EGFR-WT (Homo sapiens, UniProt P00533); assay: Wild-type EGFR biochemical activity assay (HTRF)
Method: as §2, §3, §4

[21] = system: H1975; assay: Cell line-derived xenograft (CDX) mouse model; format: in vivo, nude mice
Method: as §5, §6, §7

Chain of EGFR L792F (P00533 25-1210 L792F): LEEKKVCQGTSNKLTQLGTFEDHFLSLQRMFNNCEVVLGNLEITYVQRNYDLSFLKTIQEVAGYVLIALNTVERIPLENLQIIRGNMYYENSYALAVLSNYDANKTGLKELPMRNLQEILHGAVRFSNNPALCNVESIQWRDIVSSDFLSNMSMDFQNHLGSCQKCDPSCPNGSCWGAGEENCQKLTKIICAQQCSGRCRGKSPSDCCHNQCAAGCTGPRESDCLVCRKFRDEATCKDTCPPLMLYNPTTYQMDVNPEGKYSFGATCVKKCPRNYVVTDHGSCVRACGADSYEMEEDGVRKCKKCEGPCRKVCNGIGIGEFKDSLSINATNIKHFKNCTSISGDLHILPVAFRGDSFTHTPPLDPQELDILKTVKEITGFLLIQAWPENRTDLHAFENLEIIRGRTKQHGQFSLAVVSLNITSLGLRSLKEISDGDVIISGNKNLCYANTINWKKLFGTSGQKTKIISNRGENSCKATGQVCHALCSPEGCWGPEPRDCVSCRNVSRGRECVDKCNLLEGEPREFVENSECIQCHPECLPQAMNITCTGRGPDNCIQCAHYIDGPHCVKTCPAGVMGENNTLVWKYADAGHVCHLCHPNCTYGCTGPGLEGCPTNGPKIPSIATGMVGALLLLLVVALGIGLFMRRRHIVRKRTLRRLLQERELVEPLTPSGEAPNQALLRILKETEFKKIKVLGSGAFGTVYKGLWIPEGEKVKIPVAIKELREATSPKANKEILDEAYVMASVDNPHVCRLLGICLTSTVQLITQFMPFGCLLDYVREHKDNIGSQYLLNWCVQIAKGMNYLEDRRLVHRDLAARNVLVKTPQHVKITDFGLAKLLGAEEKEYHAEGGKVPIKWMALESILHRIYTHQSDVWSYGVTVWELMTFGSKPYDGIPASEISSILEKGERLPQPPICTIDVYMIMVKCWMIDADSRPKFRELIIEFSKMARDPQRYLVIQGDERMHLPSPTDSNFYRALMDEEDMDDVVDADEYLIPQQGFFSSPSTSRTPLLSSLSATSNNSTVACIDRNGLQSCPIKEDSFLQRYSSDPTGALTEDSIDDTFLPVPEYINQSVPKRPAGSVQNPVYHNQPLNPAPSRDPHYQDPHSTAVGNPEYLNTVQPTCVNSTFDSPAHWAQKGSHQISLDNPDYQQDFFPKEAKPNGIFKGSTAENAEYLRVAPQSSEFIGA
Chain of Ba/F3_EGFR D770_N771insSVD (P00533 with tags, fused parts or gaps DUP768-770): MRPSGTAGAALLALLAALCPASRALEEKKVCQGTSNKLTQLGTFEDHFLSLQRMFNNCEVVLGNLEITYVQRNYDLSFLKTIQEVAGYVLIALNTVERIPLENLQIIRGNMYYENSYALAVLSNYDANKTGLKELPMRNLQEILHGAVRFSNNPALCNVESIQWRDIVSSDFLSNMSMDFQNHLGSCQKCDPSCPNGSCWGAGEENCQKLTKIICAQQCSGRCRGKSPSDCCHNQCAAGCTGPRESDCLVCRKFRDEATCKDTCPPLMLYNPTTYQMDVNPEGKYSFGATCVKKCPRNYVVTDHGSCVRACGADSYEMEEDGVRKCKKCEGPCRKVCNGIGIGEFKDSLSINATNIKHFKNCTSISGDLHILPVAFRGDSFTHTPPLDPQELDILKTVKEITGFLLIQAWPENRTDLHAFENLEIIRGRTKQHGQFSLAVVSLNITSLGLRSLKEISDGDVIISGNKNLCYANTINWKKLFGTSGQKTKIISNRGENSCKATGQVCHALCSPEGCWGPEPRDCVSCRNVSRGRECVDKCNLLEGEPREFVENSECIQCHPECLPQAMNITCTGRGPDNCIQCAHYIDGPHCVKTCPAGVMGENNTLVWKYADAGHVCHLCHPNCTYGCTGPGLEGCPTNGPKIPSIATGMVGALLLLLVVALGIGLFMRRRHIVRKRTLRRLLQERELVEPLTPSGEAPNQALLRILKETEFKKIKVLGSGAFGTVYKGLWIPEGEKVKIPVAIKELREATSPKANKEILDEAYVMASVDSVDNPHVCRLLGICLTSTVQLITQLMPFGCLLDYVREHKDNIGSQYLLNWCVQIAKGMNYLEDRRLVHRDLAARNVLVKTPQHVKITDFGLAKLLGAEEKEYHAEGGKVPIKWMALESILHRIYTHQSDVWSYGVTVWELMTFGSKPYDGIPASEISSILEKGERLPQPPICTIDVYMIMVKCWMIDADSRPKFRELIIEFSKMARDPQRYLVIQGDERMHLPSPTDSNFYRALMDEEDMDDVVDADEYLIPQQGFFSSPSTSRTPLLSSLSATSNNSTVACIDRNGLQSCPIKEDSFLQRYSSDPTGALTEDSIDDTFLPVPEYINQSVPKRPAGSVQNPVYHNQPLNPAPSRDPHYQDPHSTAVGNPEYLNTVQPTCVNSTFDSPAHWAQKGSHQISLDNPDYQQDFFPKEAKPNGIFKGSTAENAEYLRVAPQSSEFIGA
Chain of Ba/F3_EGFR V769_D770insASV (P00533 with tags, fused parts or gaps DUP767-769): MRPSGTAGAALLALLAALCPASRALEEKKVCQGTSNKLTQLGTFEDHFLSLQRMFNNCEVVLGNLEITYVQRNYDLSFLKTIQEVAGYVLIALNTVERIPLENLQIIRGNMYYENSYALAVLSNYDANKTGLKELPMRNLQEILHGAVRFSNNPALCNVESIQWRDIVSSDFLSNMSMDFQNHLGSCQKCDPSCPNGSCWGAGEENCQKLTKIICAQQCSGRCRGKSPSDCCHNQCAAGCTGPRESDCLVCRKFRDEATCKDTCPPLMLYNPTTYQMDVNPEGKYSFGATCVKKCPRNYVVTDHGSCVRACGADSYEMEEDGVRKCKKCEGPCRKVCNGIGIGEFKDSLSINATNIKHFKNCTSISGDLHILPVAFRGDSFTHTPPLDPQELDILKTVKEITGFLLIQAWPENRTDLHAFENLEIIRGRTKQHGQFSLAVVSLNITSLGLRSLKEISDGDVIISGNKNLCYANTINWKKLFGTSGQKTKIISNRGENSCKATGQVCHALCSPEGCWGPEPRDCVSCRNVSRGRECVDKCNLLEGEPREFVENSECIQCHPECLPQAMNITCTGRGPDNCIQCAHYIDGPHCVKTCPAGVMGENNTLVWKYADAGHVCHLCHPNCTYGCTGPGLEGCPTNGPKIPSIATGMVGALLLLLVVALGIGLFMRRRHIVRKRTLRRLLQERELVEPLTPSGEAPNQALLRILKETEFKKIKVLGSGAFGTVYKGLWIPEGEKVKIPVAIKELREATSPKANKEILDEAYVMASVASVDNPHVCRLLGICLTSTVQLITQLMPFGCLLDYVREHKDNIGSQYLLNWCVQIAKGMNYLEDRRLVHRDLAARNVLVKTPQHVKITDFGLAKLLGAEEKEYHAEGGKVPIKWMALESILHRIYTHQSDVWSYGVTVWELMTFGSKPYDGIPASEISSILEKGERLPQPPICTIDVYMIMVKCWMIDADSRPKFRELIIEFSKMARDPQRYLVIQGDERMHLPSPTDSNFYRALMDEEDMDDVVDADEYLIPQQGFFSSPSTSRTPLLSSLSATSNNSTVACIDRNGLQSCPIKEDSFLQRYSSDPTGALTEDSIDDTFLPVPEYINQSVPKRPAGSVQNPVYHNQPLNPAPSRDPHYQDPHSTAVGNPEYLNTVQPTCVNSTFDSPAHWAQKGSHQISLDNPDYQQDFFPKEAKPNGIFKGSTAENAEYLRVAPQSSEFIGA
Chain of EGFR T790M/L858R (P00533 25-1210 T790M/L858R): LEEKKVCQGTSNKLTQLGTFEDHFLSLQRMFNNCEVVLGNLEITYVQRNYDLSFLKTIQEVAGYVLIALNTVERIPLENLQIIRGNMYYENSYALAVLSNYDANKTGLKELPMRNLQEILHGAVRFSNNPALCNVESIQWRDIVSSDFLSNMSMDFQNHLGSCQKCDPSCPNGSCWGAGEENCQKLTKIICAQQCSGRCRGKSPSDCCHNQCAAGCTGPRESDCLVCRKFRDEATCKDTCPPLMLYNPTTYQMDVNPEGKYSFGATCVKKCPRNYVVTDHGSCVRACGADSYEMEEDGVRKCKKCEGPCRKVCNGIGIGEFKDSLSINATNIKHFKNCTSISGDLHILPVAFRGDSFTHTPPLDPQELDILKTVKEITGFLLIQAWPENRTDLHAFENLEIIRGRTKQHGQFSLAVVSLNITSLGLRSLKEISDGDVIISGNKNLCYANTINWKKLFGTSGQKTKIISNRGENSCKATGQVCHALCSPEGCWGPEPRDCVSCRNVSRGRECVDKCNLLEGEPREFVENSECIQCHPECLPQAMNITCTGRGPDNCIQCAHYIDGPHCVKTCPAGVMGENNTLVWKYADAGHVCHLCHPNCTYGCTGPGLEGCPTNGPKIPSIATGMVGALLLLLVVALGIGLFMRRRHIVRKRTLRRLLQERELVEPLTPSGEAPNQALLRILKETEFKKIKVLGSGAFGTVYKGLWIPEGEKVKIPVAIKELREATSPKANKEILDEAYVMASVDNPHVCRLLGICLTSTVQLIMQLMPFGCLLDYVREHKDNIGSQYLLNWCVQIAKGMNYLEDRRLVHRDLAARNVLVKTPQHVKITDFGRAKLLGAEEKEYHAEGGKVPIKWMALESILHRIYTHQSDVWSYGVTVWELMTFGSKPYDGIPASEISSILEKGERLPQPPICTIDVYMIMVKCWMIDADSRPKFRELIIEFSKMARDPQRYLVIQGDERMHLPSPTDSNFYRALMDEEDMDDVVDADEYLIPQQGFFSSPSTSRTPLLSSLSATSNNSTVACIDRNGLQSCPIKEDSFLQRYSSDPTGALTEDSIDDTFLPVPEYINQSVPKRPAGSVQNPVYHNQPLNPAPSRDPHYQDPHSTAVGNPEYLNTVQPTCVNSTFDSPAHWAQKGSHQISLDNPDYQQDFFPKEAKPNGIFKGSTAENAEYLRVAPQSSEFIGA

## C=CC(=O)Nc1cc(Nc2nccc(-n3c(=O)n4c5c(cc(F)cc53)CCC4)n2)c(OC)cc1N(C)CCN(C)C [Compound 1, N-(2-((2-(dimethylamino)ethyl)(methyl)amino)-5-((4-(8-fluoro-2-oxo-5,6-dihydro-4H-imidazo[4,5,1-ij]quinolin-1(2H)-yl)pyrimidin-2-yl)amino)-4-methoxyphenyl)acrylamide]
[1]
  GI50: 7.06 nM
[2]
  pIC50: 7.28
[3]
  GI50: 20.2 nM
[4]
  pIC50: 6.80
[5]
  IC50: 0.769 nM
[6]
  impact on body weight compared to poziotinib, in words: less impacts on body weight
[7]; LU-01-0426, 15 mg/kg compound 1
  TGI (%): 47%
[7]; LU-01-0426, 15 mg/kg compound 1, day 1 to day 21
  Terminal body weight changes (%): 5.7%
[7]; LU-01-0426, 30 mg/kg compound 1
  TGI (%): 84%
[7]; LU-01-0426, 30 mg/kg compound 1, day 1 to day 21
  Terminal body weight changes (%): 1.8%
[7]; LU-01-0426, 60 mg/kg compound 1
  TGI (%): 106.3%
[7]; LU-01-0426, 60 mg/kg compound 1, day 1 to day 21
  Terminal body weight changes (%): −2%
[8]; LU-01-0493, 15 mg/kg compound 1
  TGI (%): 55.4%
[8]; LU-01-0493, 15 mg/kg compound 1, day 1 to day 21
  Terminal body weight changes (%): 3.2%
[8]; LU-01-0493, 30 mg/kg compound 1
  TGI (%): 72.3%
[8]; LU-01-0493, 30 mg/kg compound 1, day 1 to day 21
  Terminal body weight changes (%): −6.1%
[8]; LU-01-0493, 60 mg/kg compound 1
  TGI (%): 88.9%
[8]; LU-01-0493, 60 mg/kg compound 1, day 1 to day 21
  Terminal body weight changes (%): −6.5%
[9]
  IC50: 0.175 nM
[10]
  IC50: 0.264 nM
[11]
  IC50: 27.6 nM
[12]
  IC50: 0.0526 nM
[13]
  IC50: 0.049 nM
[14]
  IC50: 0.063 nM
[15]
  IC50: 0.0649 nM
[16]
  IC50: 0.0639 nM
[17]
  IC50: 1.26 nM
[18]; LU-0387, 30 mg/kg compound 1
  TGI (%): 42%
[18]; LU-0387, 30 mg/kg compound 1, day 1 to day 21
  Terminal body weight changes (%): −7.75%
[18]; LU-0387, 60 mg/kg compound 1
  TGI (%): 95%
[18]; LU-0387, 60 mg/kg compound 1, day 1 to day 21
  Terminal body weight changes (%): 1.26%
[19]
  IC50: 35.1 nM
[20]
  IC50: 1.56 nM
[21]; H1975, 15 mg/kg compound 1
  TGI (%): 98%
[21]; H1975, 15 mg/kg compound 1, day 1 to day 21
  Terminal body weight changes (%): 3.9%
[21]; H1975, 30 mg/kg compound 1
  TGI (%): 106%
[21]; H1975, 30 mg/kg compound 1, day 1 to day 21
  Terminal body weight changes (%): 5.1%
[21]; H1975, 60 mg/kg compound 1
  TGI (%): 108%
[21]; H1975, 60 mg/kg compound 1, day 1 to day 21
  Terminal body weight changes (%): −4.1%
